Drawing on ChEMBL document CHEMBL1150976, “The selectivity of protein kinase inhibitors: a further update” (Biochem J, 2007), this text covers Activity for 7 compounds.

The target in assay [1] is Mitogen-activated protein kinase 10 (Homo sapiens) (UniProt P53779). Briefly: Percentage JNK3 activity remaining in the presence of 0.1uM inhibitor.
The target of assay [2] is Serine/threonine-protein kinase PAK 5 (Homo sapiens) (UniProt Q9P286). Briefly: Percentage PAK5 activity remaining in the presence of 0.1uM inhibitor.
Sequence of Serine/threonine-protein kinase PAK 5 (Homo sapiens) (Q9P286 whole entry, looked up): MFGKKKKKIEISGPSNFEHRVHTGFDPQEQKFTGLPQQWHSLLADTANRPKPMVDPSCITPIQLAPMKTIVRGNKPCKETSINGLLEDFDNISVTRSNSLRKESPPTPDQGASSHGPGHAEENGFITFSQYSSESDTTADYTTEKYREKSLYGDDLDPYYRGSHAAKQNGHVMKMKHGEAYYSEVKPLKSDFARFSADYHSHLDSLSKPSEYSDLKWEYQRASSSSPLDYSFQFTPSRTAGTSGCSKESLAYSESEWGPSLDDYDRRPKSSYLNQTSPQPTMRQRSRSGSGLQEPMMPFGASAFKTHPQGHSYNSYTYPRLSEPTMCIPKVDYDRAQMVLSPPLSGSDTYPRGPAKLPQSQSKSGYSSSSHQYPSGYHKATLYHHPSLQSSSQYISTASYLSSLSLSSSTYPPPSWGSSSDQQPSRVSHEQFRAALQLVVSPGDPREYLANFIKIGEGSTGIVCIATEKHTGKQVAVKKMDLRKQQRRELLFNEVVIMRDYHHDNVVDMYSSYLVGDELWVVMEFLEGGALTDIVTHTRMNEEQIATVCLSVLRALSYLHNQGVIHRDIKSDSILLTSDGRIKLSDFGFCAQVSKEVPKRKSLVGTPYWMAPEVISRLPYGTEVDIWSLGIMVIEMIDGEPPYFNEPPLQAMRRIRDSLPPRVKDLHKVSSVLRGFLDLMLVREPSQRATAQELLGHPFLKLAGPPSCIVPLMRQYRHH
In assay [3] the target is T1, Aurora kinase C (Homo sapiens) (UniProt Q9UQB9).
T1 sequence (whole entry): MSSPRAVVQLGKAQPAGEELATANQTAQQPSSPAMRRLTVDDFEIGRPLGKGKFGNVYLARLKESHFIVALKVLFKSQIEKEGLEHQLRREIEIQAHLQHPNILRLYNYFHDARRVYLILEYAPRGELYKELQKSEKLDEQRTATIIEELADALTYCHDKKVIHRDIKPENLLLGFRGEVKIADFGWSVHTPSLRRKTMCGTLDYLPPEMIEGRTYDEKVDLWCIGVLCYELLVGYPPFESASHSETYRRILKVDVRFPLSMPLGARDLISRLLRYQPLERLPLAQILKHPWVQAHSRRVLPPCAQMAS
Briefly: Percentage Aurora C activity remaining in the presence of 0.1uM inhibitor.

The target in assay [4] is T2, Serine/threonine-protein kinase 3 (Homo sapiens) (UniProt Q13188).
T2 sequence (whole entry): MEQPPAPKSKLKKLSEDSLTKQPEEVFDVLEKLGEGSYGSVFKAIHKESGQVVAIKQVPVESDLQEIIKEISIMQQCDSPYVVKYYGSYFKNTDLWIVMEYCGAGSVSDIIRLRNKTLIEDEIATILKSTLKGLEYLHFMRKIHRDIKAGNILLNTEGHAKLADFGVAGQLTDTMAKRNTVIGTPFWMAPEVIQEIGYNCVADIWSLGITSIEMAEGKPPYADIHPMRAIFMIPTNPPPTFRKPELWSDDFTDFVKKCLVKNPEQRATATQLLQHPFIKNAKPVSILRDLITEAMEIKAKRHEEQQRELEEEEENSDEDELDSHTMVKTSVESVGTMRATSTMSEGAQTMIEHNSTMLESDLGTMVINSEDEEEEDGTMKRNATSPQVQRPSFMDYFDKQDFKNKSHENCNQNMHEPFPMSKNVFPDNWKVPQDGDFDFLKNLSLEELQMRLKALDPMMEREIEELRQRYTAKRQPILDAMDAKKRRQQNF
Nature of the assay: Percentage MST2 activity remaining in the presence of 0.1uM inhibitor.

In assay [5] the target is T3, Inhibitor of nuclear factor kappa-B kinase subunit beta (Homo sapiens) (UniProt O14920).
T3 sequence (whole entry): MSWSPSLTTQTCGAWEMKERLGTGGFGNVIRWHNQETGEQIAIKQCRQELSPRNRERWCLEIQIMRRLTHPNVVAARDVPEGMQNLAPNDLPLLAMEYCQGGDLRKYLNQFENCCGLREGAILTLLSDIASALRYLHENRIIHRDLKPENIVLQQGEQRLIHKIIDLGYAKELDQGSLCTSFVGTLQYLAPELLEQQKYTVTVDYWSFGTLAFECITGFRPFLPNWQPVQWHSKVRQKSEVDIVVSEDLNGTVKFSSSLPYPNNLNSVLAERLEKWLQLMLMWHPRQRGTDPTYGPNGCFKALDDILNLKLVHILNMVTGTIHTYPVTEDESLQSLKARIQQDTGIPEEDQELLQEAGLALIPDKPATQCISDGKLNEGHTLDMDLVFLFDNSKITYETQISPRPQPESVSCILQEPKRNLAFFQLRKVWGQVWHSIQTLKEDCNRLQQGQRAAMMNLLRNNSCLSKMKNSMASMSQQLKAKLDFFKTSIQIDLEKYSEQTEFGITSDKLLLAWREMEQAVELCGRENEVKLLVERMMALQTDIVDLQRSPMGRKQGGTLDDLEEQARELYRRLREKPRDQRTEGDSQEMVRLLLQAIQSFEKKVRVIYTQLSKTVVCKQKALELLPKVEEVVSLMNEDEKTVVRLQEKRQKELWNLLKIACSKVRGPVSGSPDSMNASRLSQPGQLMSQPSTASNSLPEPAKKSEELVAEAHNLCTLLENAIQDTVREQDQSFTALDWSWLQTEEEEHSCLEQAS
Nature of the assay: Percentage IKK-beta activity remaining in the presence of 0.1uM inhibitor.

The target of assay [6] is T4, Dual specificity tyrosine-phosphorylation-regulated kinase 3 (Homo sapiens) (UniProt O43781).
T4 sequence (whole entry): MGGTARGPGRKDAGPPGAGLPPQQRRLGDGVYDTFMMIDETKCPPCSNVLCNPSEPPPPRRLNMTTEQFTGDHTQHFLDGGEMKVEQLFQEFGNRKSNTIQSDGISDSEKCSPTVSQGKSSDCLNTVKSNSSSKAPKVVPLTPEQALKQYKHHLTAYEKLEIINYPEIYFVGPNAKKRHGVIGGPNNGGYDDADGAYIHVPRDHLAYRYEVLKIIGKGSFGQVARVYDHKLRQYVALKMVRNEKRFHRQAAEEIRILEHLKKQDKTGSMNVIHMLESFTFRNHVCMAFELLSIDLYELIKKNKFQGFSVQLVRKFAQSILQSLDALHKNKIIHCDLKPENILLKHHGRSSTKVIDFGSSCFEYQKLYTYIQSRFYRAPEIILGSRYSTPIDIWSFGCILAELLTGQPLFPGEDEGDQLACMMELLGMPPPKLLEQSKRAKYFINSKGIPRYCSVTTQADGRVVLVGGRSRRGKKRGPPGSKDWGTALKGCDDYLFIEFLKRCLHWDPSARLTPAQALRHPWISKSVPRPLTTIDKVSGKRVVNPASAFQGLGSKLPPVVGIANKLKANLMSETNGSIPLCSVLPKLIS
Nature of the assay: Percentage DYRK3 activity remaining in the presence of 0.1uM inhibitor.

Assay [7] has as its target Mitogen-activated protein kinase 8 (Homo sapiens, UniProt P45983). Briefly: Percentage JNK1 activity remaining in the presence of 0.1uM inhibitor.

Sequence of Mitogen-activated protein kinase 8 (P45983 whole entry): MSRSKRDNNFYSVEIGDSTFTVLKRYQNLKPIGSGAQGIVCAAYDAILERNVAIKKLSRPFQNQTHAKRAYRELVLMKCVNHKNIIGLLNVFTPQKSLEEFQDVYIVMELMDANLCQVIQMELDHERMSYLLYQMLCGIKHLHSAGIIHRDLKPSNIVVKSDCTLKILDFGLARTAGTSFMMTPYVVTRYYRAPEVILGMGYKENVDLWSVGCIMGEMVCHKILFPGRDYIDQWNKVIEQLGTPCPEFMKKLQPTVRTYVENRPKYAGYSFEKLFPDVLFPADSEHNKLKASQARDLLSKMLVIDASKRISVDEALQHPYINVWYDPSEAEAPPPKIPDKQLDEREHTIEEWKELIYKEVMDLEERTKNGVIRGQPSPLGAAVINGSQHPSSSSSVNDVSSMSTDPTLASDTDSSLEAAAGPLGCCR
Sequence of Mitogen-activated protein kinase 10 (Homo sapiens) (P53779 whole entry): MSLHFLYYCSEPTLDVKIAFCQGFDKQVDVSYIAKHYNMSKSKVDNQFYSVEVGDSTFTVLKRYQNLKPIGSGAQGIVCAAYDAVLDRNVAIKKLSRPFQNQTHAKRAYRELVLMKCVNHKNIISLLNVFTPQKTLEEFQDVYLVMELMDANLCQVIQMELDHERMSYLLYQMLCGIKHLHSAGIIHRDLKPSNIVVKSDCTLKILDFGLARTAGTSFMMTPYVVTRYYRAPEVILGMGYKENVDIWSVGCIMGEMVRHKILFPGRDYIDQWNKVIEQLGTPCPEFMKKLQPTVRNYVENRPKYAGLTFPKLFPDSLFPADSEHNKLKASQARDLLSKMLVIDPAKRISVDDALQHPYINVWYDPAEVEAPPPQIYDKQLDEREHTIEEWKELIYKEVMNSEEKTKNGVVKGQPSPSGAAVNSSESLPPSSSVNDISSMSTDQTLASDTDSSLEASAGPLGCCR

Regarding `CC(C)CCN1c2nc(Nc3cc(F)c(O)c(F)c3)ncc2N(C)C(=O)C1C` (centres undefined), the Activity was 97% in assay [1]; 90% in assay [2]; 76% in assay [3]; 41% in assay [4] (filed as antagonist); 106% in assay [5]; 91% in assay [6]. In assay [7], the Activity amounted to 88%.

With `CC(C)[C@H](CO)Nc1nc(Nc2cccc(Cl)c2)c2ncn(C(C)C)c2n1` [PURVALANOLA], the Activity amounted to 100% in assay [1]; 53% in assay [2]; 85% in assay [3]; 60% in assay [4]; 89% in assay [5]; 89% in assay [6]. In addition, the Activity in assay [7] came out at 100%.

Turning to `Cn1cc(C2=C(c3cn(CCCSC(=N)N)c4ccccc34)C(=O)NC2=O)c2ccccc21`, the Activity in assay [1] was 102%; in assay [2], 79%; in assay [3], 77%; in assay [4], 80%; in assay [5] it was 91%; in assay [6], 55%. Besides, the Activity in assay [7] was 93%.

As to `Cc1n[nH]c2ccc(-c3cncc(OC[C@@H](N)Cc4c[nH]c5ccccc45)c3)cc12`, the Activity in assay [1] was 86%; in assay [2], 96%; in assay [3], 92%; in assay [4] (filed as antagonist) it was 29%; in assay [5], 89%; in assay [6] (filed as antagonist), 8%. Further, in assay [7], the Activity amounted to 90%.

On to `O=C(NCCCNc1nc(Nc2cccc(NC(=O)N3CCCC3)c2)ncc1I)c1cccs1`, for which the Activity is 93% in assay [1]; 81% in assay [2]; 9% in assay [3] (filed as antagonist); 92% in assay [4]; 93% in assay [5]; 65% in assay [6]. Moreover, the Activity in assay [7] amounted to 85%.

For `Cn1c2ccccc2c2c3c(c4c5ccccc5n(CCC#N)c4c21)CNC3=O`, the Activity in assay [1] is 79%; in assay [2] (filed as antagonist) it was 6%; in assay [3] (filed as antagonist), 44%; in assay [4] (filed as antagonist), 3%; in assay [5] it was 76%; in assay [6] (filed as antagonist), 28%. The Activity in assay [7] was 69%.

Take `CN(C)C[C@@H]1CCn2cc(c3ccccc32)C2=C(C(=O)NC2=O)c2cn(c3ccccc23)CCO1`: the Activity in assay [1] is 112%; in assay [2] it was 79%; in assay [3], 92%; in assay [4] (filed as antagonist), 37%; in assay [5], 86%; in assay [6], 64%. In addition, the Activity in assay [7] turned out to be 87%.
